According to patent US20210108199A1, “Treatment for aggressive cancers by targeting C9ORF72” (The Trustees of Columbia University in the City of New York, priority 2017, published 2021):

Key:
C9 = C9 knock down efficiency by western blot; format: cell-based; conditions: U87 cells, vs control siRNA
Procedure: For siRNA knockdown experiments, siRNAs targeting C9 mRNA were designed with the Whitehead website (sirna.wi.mit.edu) and with RNAxs webserver (rna.tbi.univie.ac.at/cgi-bin/RNAxs). All siRNAs were obtained from GenePharma™. Lipofectamine RNAiMAX (Thermo Scientific™) was used as the transfection reagent for all siRNA experiments (according to the manufacturer's instructions). siRNA concentration was 40 nM per 60 mm plate. After 6 hours, media was changed and cells were treated again with siRNA after 48 hours. For RNA and protein analysis, cells were harvested after 48 hours following the second treatment. All KD experiments were performed in three biological replicates. The siRNA sequences were as follows: […] (SEQ ID NO:631; sense) and […] […]
For Western blot analysis, cells were lysed with lysis buffer (20 mM sodium phosphate (pH 7.0), 250 mM NaCl, 30 mM sodium pyrophosphate, 0.1% Nonidet™ P-40, 5 mM EDTA, 10 mM NaF, 0.1 mM Na3VO4, and 1 mM PMSF) supplemented with complete protease inhibitors (Roche™) and homogenized by passage through a 28 gauge needle. Protein concentration was measured with a Bio-Rad™ protein assay dye reagent and results were read using a spectrophotometer (BiophotometerPlus™ by Eppendorf™). […] Quantitation of blots was performed Image Studio Lite software (LI-COR Biosciences™). […]

LAMP1 = LAMP1 western blot; format: cell-based; conditions: U87 cells
Procedure: (§1) For Western blot analysis, cells were lysed with lysis buffer (20 mM sodium phosphate (pH 7.0), 250 mM NaCl, 30 mM sodium pyrophosphate, 0.1% Nonidet™ P-40, 5 mM EDTA, 10 mM NaF, 0.1 mM Na3VO4, and 1 mM PMSF) supplemented with complete protease inhibitors (Roche™) and homogenized by passage through a 28 gauge needle. Protein concentration was measured with a Bio-Rad™ protein assay dye reagent and results were read using a spectrophotometer (BiophotometerPlus™ by Eppendorf™). Protein extracts were resolved by SDS PAGE on gradient (Thermo Fisher™) or 12% gels. Proteins were then electrotransferred at 350 mA for 80 minutes onto a PVDF membrane (Immobilon-P PVDF). Membranes were blocked with PBST with 5% milk and 1% BSA for 30 minutes. Quantitation of blots was performed Image Studio Lite software (LI-COR Biosciences™).
To this end, C9 was knocked down in U87 cells and employed a fluorescent autophagy marker ptfLC3 to mark autophagosomes and autophagolysosomes. […] The white arrows show vacuoles and the white box represents a zoom in of the cell area with vacuoles. […] The white box here represents a zoom in of the cell area with vacuoles, nuclei stained with DAPI (blue). FIG. 4B is a WB showing LAMP1 levels after control (siCtrl) and C9 KD (siC9; SEQ ID NO:631).

γ-H2AX = γ-H2AX western blot and foci quantitation; format: cell-based; conditions: U87 cells
Procedure: Cells were treated with control and C9 siRNA for three days. Cells then were fixed and stained as described in the as described above with p-H2AX(S139, #25575) antibody. For a DNA damage positive control, 0.5 μM doxorubicin hydrochloride (Sigma™, D151510MG) was used for 24 hours before imaging. Cells were then imaged using LSM 700 Carl Zeiss™. To quantify p-H2AX foci we used a publicly available software FoCo™ as described previously.
To further confirm the presence of DNA damage upon C9 KD, the DNA damage marker γ-H2AX was used as a probe on C9 KD. […] Immunofluorescence was used to image and quantitate γ-H2AX foci in control, C9 KD and doxorubicin-treated U87 cells.
FIG. 25A is a WB showing γ-H2AX and ubiquitinated γ-H2AX, control (siCtrl) and C9 KD (siC9; SEQ ID NO:631), with loading of control actin. FIG. 25B is a set of IF images of U87 cells stained for γ-H2AX (green). FIG. 25C is a graph quantitating about 90 cells (from three biological replicates) for γ-H2AX foci per cell between control (siCtrl) C9 KD (siC9) and DOX-treated U87 cells. Statistical significance was assessed by an unpaired t-test: NS P>0.05, *P≤0.05, **P≤0.01, ***P≤0.001 ****P≤0.0001.

U2OS cells = test: Western blot of U2OS cells after C9 KD; format: cell-based, human
Procedure: as §1
See FIG. 28, a WB of U2OS cells treated with control and C9 siRNA and probed for PARP1, p-p53 (s15), p53, p-ERK, p21, p-H2AX, using actin as a loading control.

p53 null U87 cells = test: Vacuoles in p53 null U87 clones; format: cell-based; conditions: p53 null U87 clones KO #4 and KO #9
Procedure: To generate p53 knockout clones, U87 cells (7×10^5) were transfected with 2 μg p53 CRISPR/Cas9 KO plasmid (Santa Cruz Biotech™, sc-416469) using Lipofectamine 2000 (ThermoFisher™). Two days later, cells were treated with Nutlin-3 (10 μM) for 12 days to inhibit proliferation of cells with wild type p53, thereby enriching for p53 knockout cells. Single-cell clones were selected via limiting dilution, and p53 knockout clones were confirmed by western blotting using p53 antibody (FL-393).
C9 then was knocked down with two independent siRNAs in the two U87 p53 null clones. […] See FIG. 33A, which provides phase contrast images (40×) of two clones (KO #4 and KO #9) of p53 null U87 cells generated by CRISPR, treated with control (siCtrl) and C9 (siC9; SEQ ID NO:631) siRNA, and FIG. 33B, a WB showing C9 levels after C9 KD in KO #4 cells.
FIG. 34 is a graph presenting quantitation of data for about 90 cells, indicating the number of vacuoles per cell. Statistical significance was assessed by unpaired t-test: NS P>0.05, *P≤0.05, **P≤0.01, ***P≤0.001 ****P≤0.0001. FIG. 35 is a WB showing PARP1, phospho-ERK and γ-H2AX levels upon C9 KD (siC9; SEQ ID NO:631) in U87 KO #4 cell line.

Question: How did the “C9 expression (western blot)” value (C9) turn out when “siC9: siRNA targeting C9 mRNA: UUAAUGAAACAAUAAUCACUC (SEQ ID NO:631; sense) and GUGAUUAUUGUUUCAUUAAUC (SEQ ID NO:632; antisense) (listed as RNA, chemistry not given here)” was run?
Answer: reduced expression compared to control

Question: What about the LAMP1 levels (LAMP1) of the same substance?
Answer: increased levels

Question: And the “γ-H2AX levels (western blot)” value (γ-H2AX)?
Answer: increased γ-H2AX levels

Question: What about the “γ-H2AX foci per cell” value (γ-H2AX; immunofluorescence) of the same substance?
Answer: significant increase in γ-H2AX foci

Question: What about the CDKN1A/p21 protein levels (U2OS cells) of the same substance?
Answer: increase in CDKN1A/p21 protein levels

Question: What about the PARP1 level (U2OS cells) of the same substance?
Answer: PARP1 downregulation

Question: What about the p53 levels (U2OS cells) of the same substance?
Answer: increased p53 levels

Question: And the p-ERK (U2OS cells)?
Answer: increases in p-ERK

Question: What about the “phosphorylated p53 (on s15)” value (U2OS cells) of the same substance?
Answer: increases in phosphorylated p53

Question: And the γ-H2AX (U2OS cells)?
Answer: increases

Question: What about the vacuolization (p53 null U87 cells) of the same substance?
Answer: no significant increase in vacuolization
